Experimental data as given in patent USRE39591E1, “6-O-substituted ketolides having antibacterial activity” (Abbott Laboratories, priority 1996, dated 2007).
Values after ≈ are worked out from the molar mass of the structure shown.

Tested on: up to 32 different microorganisms
Experiment: in vitro antibacterial activity (MIC), agar dilution on Brain Heart Infusion (BHI) agar with Steers replicator
Type: cell-based
Conditions: unit assumed
Method in brief: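 Twelve plates carried successive aqueous dilutions of test compound in BHI agar; inocula were 1:100 dilutions (1:10 for slow growers such as Micrococcus, Streptococcus), incubated 35°-37° C for 20 to 24 hours. MIC was the lowest concentration giving no growth, slight haze, or sparse isolated colonies versus growth control.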

Structure (SMILES): CC[C@H]1OC(=O)[C@H](C)C(=O)[C@H](C)[C@@H](O[C@@H]2O[C@H](C)C[C@H](N(C)C)[C@H]2O)[C@@](C)(OCCNCCCc2ccccc2)C[C@@H](C)C(=O)[C@H](C)[C@H]2NC(=O)O[C@@]21C [Example 223, Compound of Formula (IX): L is CO, T is NH, R is —CH2CH2NHCH2CH2CH2Phenyl]
- MIC (organism code AA): 0.2 mg/L
- MIC (organism code BB): 0.1 mg/L
- MIC (organism code CC): > 100 mg/L
- MIC (organism code DD): 0.2 mg/L
- MIC (organism code EE): 0.2 mg/L
- MIC (organism code FF): 0.2 mg/L
- MIC (organism code GG): > 100 mg/L
- MIC (organism code HH): 0.39 mg/L
- MIC (organism code II): 0.05 mg/L
- MIC (organism code JJ): ≤ 0.005 mg/L
- MIC (organism code KK): ≤ 0.005 mg/L
- MIC (organism code LL): ≤ 0.005 mg/L
- MIC (organism code MM): > 100 mg/L
- MIC (organism code NN): 0.1 mg/L
- MIC (organism code OO): 0.05 mg/L
- MIC (organism code PP): 0.2 mg/L
- MIC (organism code QQ): 50 mg/L
- MIC (organism code RR): 0.2 mg/L
- MIC (organism code SS): 100 mg/L
- MIC (organism code TT): > 100 mg/L
- MIC (organism code UU): 3.1 mg/L
- MIC (organism code VV): 0.2 mg/L
- MIC (organism code WW): 4 mg/L
- MIC (organism code XX): 0.03 mg/L
- MIC (organism code YY): 0.03 mg/L
- MIC (organism code ZZ): > 128 mg/L
- MIC (organism code ZZA): 0.5 mg/L

Structure (SMILES): CC[C@H]1OC(=O)[C@H](C)C(=O)[C@H](C)[C@@H](O[C@@H]2O[C@H](C)C[C@H](N(C)C)[C@H]2O)[C@@](C)(OCC=NOCc2ccc3ncccc3c2)C[C@@H](C)C(=O)[C@H](C)[C@H]2NC(=O)O[C@@]21C [Example 234, Compound of Formula (IX): L is CO, T is NH, R is —CH2CH═NOCH2(6-quinolyl)]
- MIC (organism code AA): 0.1 mg/L
- MIC (organism code BB): 0.1 mg/L
- MIC (organism code CC): > 100 mg/L
- MIC (organism code DD): 0.2 mg/L
- MIC (organism code EE): 0.2 mg/L
- MIC (organism code FF): 0.1 mg/L
- MIC (organism code GG): > 100 mg/L
- MIC (organism code HH): 0.1 mg/L
- MIC (organism code II): 0.05 mg/L
- MIC (organism code JJ): ≤ 0.005 mg/L
- MIC (organism code KK): 0.05 mg/L
- MIC (organism code LL): 0.01 mg/L
- MIC (organism code MM): 100 mg/L
- MIC (organism code NN): 0.2 mg/L
- MIC (organism code OO): 0.01 mg/L
- MIC (organism code PP): 0.1 mg/L
- MIC (organism code QQ): 50 mg/L
- MIC (organism code RR): 0.39 mg/L
- MIC (organism code SS): 50 mg/L
- MIC (organism code TT): > 100 mg/L
- MIC (organism code UU): 0.78 mg/L
- MIC (organism code VV): 0.1 mg/L
- MIC (organism code WW): 2 mg/L
- MIC (organism code XX): 0.03 mg/L
- MIC (organism code YY): 0.03 mg/L
- MIC (organism code ZZ): > 128 mg/L
- MIC (organism code ZZA): 0.25 mg/L

Structure (SMILES): CCC1OC(=O)C(C)C(=O)C(C)C(OC2OC(C)CC(N(C)C)C2O)C(C)(OCC=Cc2ccnc3ccccc23)CC(C)C(=O)C(C)C2NC(=O)OC12C (stereo not drawn) [Example 213, R is —CH2CH═CH-(4-quinolyl)]
- MIC (organism code AA): 0.2 mg/L (≈ 0.261 µM)
- MIC (organism code BB): 0.2 mg/L (≈ 0.261 µM)
- MIC (organism code CC): > 100 mg/L
- MIC (organism code DD): 0.2 mg/L (≈ 0.261 µM)
- MIC (organism code EE): 0.2 mg/L (≈ 0.261 µM)
- MIC (organism code FF): 0.2 mg/L (≈ 0.261 µM)
- MIC (organism code GG): > 100 mg/L
- MIC (organism code HH): 0.2 mg/L (≈ 0.261 µM)
- MIC (organism code II): 0.1 mg/L (≈ 0.131 µM)
- MIC (organism code JJ): 0.05 mg/L (≈ 0.0653 µM)
- MIC (organism code KK): 0.05 mg/L (≈ 0.0653 µM)
- MIC (organism code LL): 0.02 mg/L (≈ 0.0261 µM)
- MIC (organism code MM): 100 mg/L (≈ 131 µM)
- MIC (organism code NN): 0.39 mg/L (≈ 0.509 µM)
- MIC (organism code OO): 0.05 mg/L (≈ 0.0653 µM)
- MIC (organism code PP): 0.2 mg/L (≈ 0.261 µM)
- MIC (organism code QQ): 100 mg/L (≈ 131 µM)
- MIC (organism code RR): 0.39 mg/L (≈ 0.509 µM)
- MIC (organism code SS): > 100 mg/L
- MIC (organism code TT): > 100 mg/L
- MIC (organism code UU): 0.39 mg/L (≈ 0.509 µM)
- MIC (organism code VV): 0.39 mg/L (≈ 0.509 µM)
- MIC (organism code WW): 4 mg/L (≈ 5.22 µM)
- MIC (organism code XX): 0.03 mg/L (≈ 0.0392 µM)
- MIC (organism code YY): 0.03 mg/L (≈ 0.0392 µM)
- MIC (organism code ZZ): > 128 mg/L
- MIC (organism code ZZA): 1 mg/L (≈ 1.31 µM)

Structure (SMILES): CCC1OC(=O)C(C)C(=O)C(C)C(OC2OC(C)CC(N(C)C)C2O)C(C)(OCC=Cc2ccc3c(c2)OCCO3)CC(C)C(=O)C(C)C2NC(=O)OC12C (stereo not drawn) [Example 192]
- MIC (Candida albicans CCH 442 (code TT)): > 100 mg/L
- MIC (Enterococcus faecism ATCC 8043 (code II)): 0.02 mg/L (≈ 0.0259 µM)
- MIC (Escherichia coli DC-2 (code SS)): 100 mg/L (≈ 129 µM)
- MIC (Escherichia coli JUHL (code QQ)): > 100 mg/L
- MIC (Escherichia coli SS (code RR)): 0.2 mg/L (≈ 0.259 µM)
- MIC (Haemophilis influenzae DILL AMP R (code WW)): 4 mg/L (≈ 5.18 µM)
- MIC (Micrococcus luteus ATCC 4698 (code PP)): 0.2 mg/L (≈ 0.259 µM)
- MIC (Micrococcus luteus ATCC 9341 (code OO)): 0.01 mg/L (≈ 0.0129 µM)
- MIC (Mycobacterium smegmatis ATCC 114 (code UU)): 3.1 mg/L (≈ 4.01 µM)
- MIC (Nocardia Asteroides ATCC9970 (code VV)): 0.1 mg/L (≈ 0.129 µM)
- MIC (Staphylococcus aureus 1775 (code GG)): > 100 mg/L
- MIC (Staphylococcus aureus A5177 (code BB)): 0.1 mg/L (≈ 0.129 µM)
- MIC (Staphylococcus aureus A-5278 (code CC)): > 100 mg/L
- MIC (Staphylococcus aureus ATCC 6538P (code AA)): 0.1 mg/L (≈ 0.129 µM)
- MIC (Staphylococcus aureus CMX 553 (code FF)): 0.1 mg/L (≈ 0.129 µM)
- MIC (Staphylococcus aureus CMX 642A (code DD)): 0.1 mg/L (≈ 0.129 µM)
- MIC (Staphylococcus aureus NCTC10649M (code EE)): 0.2 mg/L (≈ 0.259 µM)
- MIC (Staphylococcus epidermidis 3519 (code HH)): 0.1 mg/L (≈ 0.129 µM)
- MIC (Streptococcus Pneumonia 5649 (code ZZA)): 0.25 mg/L (≈ 0.323 µM)
- MIC (Streptococcus Pneumonia 5979 (code ZZ)): > 128 mg/L
- MIC (Streptococcus Pneumonia ATCC6303 (code XX)): 0.03 mg/L (≈ 0.0388 µM)
- MIC (Streptococcus Pneumonia GYR 1171 (code YY)): 0.03 mg/L (≈ 0.0388 µM)
- MIC (Streptococcus agalactiae CMX 508 (code KK)): 0.01 mg/L (≈ 0.0129 µM)
- MIC (Streptococcus bovis A-5169 (code JJ)): 0.01 mg/L (≈ 0.0129 µM)
- MIC (Streptococcus pyogenes 930 (code MM)): 50 mg/L (≈ 64.7 µM)
- MIC (Streptococcus pyogenes EES61 (code LL)): 0.01 mg/L (≈ 0.0129 µM)
- MIC (Streptococcus pyogenes PIU 2548 (code NN)): 0.1 mg/L (≈ 0.129 µM)

Structure (SMILES): CC[C@H]1OC(=O)[C@H](C)C(=O)[C@H](C)[C@@H](O[C@@H]2O[C@H](C)C[C@H](N(C)C)[C@H]2O)[C@@](C)(OCC#Cc2ccc3cc(OC)ccc3c2)C[C@@H](C)C(=O)[C@H](C)[C@H]2NC(=O)O[C@@]21C [Example 252, Compound of Formula (IX): L is CO, T is NH, R is —CH2—C≡C-(6-methoxy-2-naphthyl)]
- MIC (organism code AA): 0.1 mg/L
- MIC (organism code BB): 0.1 mg/L
- MIC (organism code CC): > 100 mg/L
- MIC (organism code DD): 0.1 mg/L
- MIC (organism code EE): 0.1 mg/L
- MIC (organism code FF): 0.1 mg/L
- MIC (organism code GG): > 100 mg/L
- MIC (organism code HH): 0.1 mg/L
- MIC (organism code II): 0.05 mg/L
- MIC (organism code JJ): 0.002 mg/L
- MIC (organism code KK): 0.02 mg/L
- MIC (organism code LL): 0.05 mg/L
- MIC (organism code MM): 3.1 mg/L
- MIC (organism code NN): 0.1 mg/L
- MIC (organism code OO): 0.02 mg/L
- MIC (organism code PP): 0.2 mg/L
- MIC (organism code QQ): > 100 mg/L
- MIC (organism code RR): 0.78 mg/L
- MIC (organism code SS): > 100 mg/L
- MIC (organism code TT): > 100 mg/L
- MIC (organism code UU): 0.2 mg/L
- MIC (organism code VV): 0.05 mg/L
- MIC (organism code WW): 2 mg/L
- MIC (organism code XX): 0.03 mg/L
- MIC (organism code YY): 0.03 mg/L
- MIC (organism code ZZ): 4 mg/L
- MIC (organism code ZZA): 0.25 mg/L

Structure (SMILES): CC[C@H]1OC(=O)[C@H](C)C(=O)[C@H](C)[C@@H](O[C@@H]2O[C@H](C)C[C@H](N(C)C)[C@H]2O)[C@@](C)(OCCNCc2ccc3ncccc3c2)C[C@@H](C)C(=O)[C@H](C)[C@H]2NC(=O)O[C@@]21C [Example 227, Compound of Formula (IX): L is CO, T is NH, R is —CH2CH2NHCH2(6-quinolyl)]
- MIC (organism code AA): 0.2 mg/L
- MIC (organism code BB): 0.2 mg/L
- MIC (organism code CC): > 100 mg/L
- MIC (organism code DD): 0.2 mg/L
- MIC (organism code EE): 0.2 mg/L
- MIC (organism code FF): 0.2 mg/L
- MIC (organism code GG): > 100 mg/L
- MIC (organism code HH): 0.2 mg/L
- MIC (organism code II): 0.05 mg/L
- MIC (organism code JJ): ≤ 0.005 mg/L
- MIC (organism code KK): 0.05 mg/L
- MIC (organism code LL): 0.02 mg/L
- MIC (organism code MM): 50 mg/L
- MIC (organism code NN): 0.39 mg/L
- MIC (organism code OO): 0.05 mg/L
- MIC (organism code PP): 0.39 mg/L
- MIC (organism code QQ): 6.2 mg/L
- MIC (organism code RR): 0.1 mg/L
- MIC (organism code SS): 25 mg/L
- MIC (organism code TT): > 100 mg/L
- MIC (organism code UU): 1.56 mg/L
- MIC (organism code VV): 0.05 mg/L
- MIC (organism code WW): 2 mg/L
- MIC (organism code XX): 0.03 mg/L
- MIC (organism code YY): 0.03 mg/L
- MIC (organism code ZZ): > 64 mg/L
- MIC (organism code ZZA): 2 mg/L
